Measured values reported in paper PMC12040169 (PLOS Biology, 2025).

test: in vitro; conditions: human, hela cells, % viability

Compared with CN1CCCc2c1nc1ccc(Br)cc1c2N [CBK009692G], Ic1ccc2ncnc(NCCN3CCOCC3)c2c1 [CBK265655] is higher in viability at 28.5 h, 10 µM: 58.9% for the first, 108% for the second.

Compared with Cc1cc(COC(=O)Nc2cccnc2)cc(C)n1 [CBK138236], Cc1cc(-c2cccs2)c(C#N)c(SCc2cccnc2)n1 [CBK270172] is lower in viability at 28.5 h, 10 µM: 83.6% for the first, 81% for the second.

Going from C=CCN(c1ccccc1)S(=O)(=O)c1ccc(Br)cc1CC [CBK038344] to O=C(CN(c1ccc(Cl)cc1)S(=O)(=O)c1ccccc1)Nc1ccc2ccccc2c1 [CBK263776], the viability at 28.5 h, 10 µM rises from 95.8% to 112%.

Going from CCOc1ccc(C)cc1S(=O)(=O)NCCc1c(C)[nH]c2c(Cl)cccc12 [CBK268859] to Cc1ccc2cc(S(=O)(=O)Nc3cccc(C(=O)O)c3)ccc2c1 [CBK299812], the viability at 28.5 h, 10 µM rises from 86.8% to 101%.

Compared with COc1cc(C)c(NC(=O)c2cnc(-c3ccc(F)cc3)c(-c3ccncc3)c2)cc1OC [CBK036575], COc1ccc(C(=O)Nc2nc3ccc(NC(C)=O)cc3s2)cc1OC [CBK287311] is higher in viability at 28.5 h, 10 µM: 97.5% for the first, 101% for the second.

Compared with CCn1c(C(O)c2ccc(OC)c(OC)c2)nc2ccccc21 (centres unmarked) [CBK262974], COCC(=O)NC(C)c1nc2ccccc2n1Cc1ccccc1C (centres unmarked) [CBK269885] is lower in viability at 28.5 h, 10 µM: 90.1% for the first, 88.1% for the second.

First: NC(=O)NC(CC(=O)N1CCOC2CCCCC21)c1cccc(Br)c1 (centres unmarked) [CBK306299]
Second: CN1CCCC1C(CCNC1CCCCC1)c1ccccc1 (centres unmarked) [CBK023921C]
The viability at 28.5 h, 10 µM of the first is lower: 93.8% for the first, 99% for the second.

Going from O=C(O)C(Cc1c[nH]cn1)N1C(=O)C2C3C=CC(C3)C2C1=O (centres unmarked) [CBK286705] to CCc1cn(C[C@H](NC(=O)C2CCCC2)C(=O)O)c(=O)[nH]c1=O [CBK289664], the viability at 28.5 h, 10 µM rises from 88% to 106%.

Compared with COc1ccnc(N2CCCN(CC(N)=O)CC2)n1 [CBK083992], CCc1noc(C(C)N2CCN(CC(=O)NCc3ccco3)CC2)n1 (centres unmarked) [CBK305368] is higher in viability at 28.5 h, 10 µM: 87.2% for the first, 116% for the second.

Going from CC(C)c1cc(C(C)C)c(S(=O)(=O)n2cnc3c2c(=O)[nH]c(=O)n3C)c(C(C)C)c1 [CBK018772] to Cn1c(=O)c2c(=S)[nH]c(-c3ccccc3)nc2n(C)c1=O [CBK288422], the viability at 28.5 h, 10 µM falls from 107% to 103%.

Compared with CCOC(=O)c1cc(C)sc1NC(=O)CCC(=O)O [CBK265412], COC(=O)c1c(NC(=O)CCCC(=O)O)sc2c1CCCCC2 [CBK265393] is lower in viability at 28.5 h, 10 µM: 108% for the first, 85.4% for the second.

Compared with N#Cc1ccc(NCC(=O)Nc2ncccc2O)cc1 [CBK306413], Cc1nnc(CCNC(=O)c2cccc(C#N)c2)n1C [CBK306017] is lower in viability at 28.5 h, 10 µM: 88.7% for the first, 85.4% for the second.

Going from CN1CCN(S(=O)(=O)c2ccc(NC(=O)c3cc(-c4ccncc4)nc4ccc(Cl)cc34)cc2)CC1 [CBK267730] to Cc1ccc(S(=O)(=O)N2CCCN(CC(O)c3ccccc3)CC2)cc1 (centres unmarked) [CBK297911], the viability at 28.5 h, 10 µM rises from 98.6% to 104%.

First: CCCCC(NC(=O)c1cc2ccccc2[nH]1)C(=O)O (centres unmarked) [CBK286647]
Second: CN(C)CCn1c(C(=O)O)cc2ccccc21 [CBK268234C]
The viability at 28.5 h, 10 µM of the first is lower: 85.9% for the first, 110% for the second.

First: CCNC(=O)N1CCN(CCCC(O)c2ccc(F)cc2)CC1 (centres unmarked) [CBK025001C]
Second: COc1ccccc1OCC(=O)N1CCN(C(=O)c2ccco2)CC1 [CBK144466]
The viability at 28.5 h, 10 µM of the first is higher: 118% for the first, 86.8% for the second.

Compared with O=[N+]([O-])c1cc(-c2nc(-c3ccco3)c(-c3ccco3)[nH]2)ccc1Br [CBK019778], O=C(NCc1ccc2occc2c1)c1ccc2[nH]ccc2c1 [CBK149055] is higher in viability at 28.5 h, 10 µM: 86.3% for the first, 89.7% for the second.

First: COc1cc(-c2nccnc2NCCc2ccccn2)cc(OC)c1OC [CBK037307]
Second: COc1cc(NC(=O)CC2NC3CCCCC3NC2=O)cc(OC)c1OC (centres unmarked) [CBK270012]
The viability at 28.5 h, 10 µM of the first is higher: 91.4% for the first, 84.5% for the second.

Going from O=[N+]([O-])c1ccccc1OCCNCc1ccccc1 [CBK265511G] to O=C(NCc1csc(-c2ccccc2)n1)c1ccccc1OC(F)F [CBK092332], the viability at 28.5 h, 10 µM falls from 101% to 95%.

First: CSc1cccc(-c2cnccc2-n2ccnc2)c1 [CBK177155]
Second: O=C(c1ccc(-n2ccnc2)c(-n2cccc2)c1)N1CCCCCC1 [CBK284813]
The viability at 28.5 h, 10 µM of the first is higher: 92.5% for the first, 87.4% for the second.

Going from CCn1ncc2c1CCCC2NC1CCN(CC(F)(F)F)C1=O (centres unmarked) [CBK305206] to COc1cc(Cn2ncc(N3CCCCC3)cc2=O)cc(OC)c1 [CBK307662], the viability at 28.5 h, 10 µM rises from 89.5% to 97.1%.

Going from CC1=NN(c2ccc(S(N)(=O)=O)cc2)C(=O)/C1=C/c1ccc(-c2ccc3c(c2)COC3=O)o1 [CBK264678] to NS(=O)(=O)c1ccc(C(=O)N2CCC3(CCN(C(=O)Cc4c[nH]c5ccccc45)C3)C2)cc1 (centres unmarked) [CBK131425], the viability at 28.5 h, 10 µM rises from 95.6% to 100%.

Going from OC(CN1CCOCC1)Cn1c(-c2ccccc2)c(-c2ccccc2)c2ccc3ccccc3c21 (centres unmarked) [CBK263996G] to O=C(CC1c2ccccc2Oc2ccccc21)N1CCc2nc3ccccc3c(=O)n2CC1 [CBK286314], the viability at 28.5 h, 10 µM falls from 94.7% to 92.4%.

First: NS(=O)(=O)c1ccc(CNC(=O)C2(c3ccccc3)CCCC2)cc1 [CBK161523]
Second: C#CCNC(=O)c1nn(Cc2ccc(S(=O)(=O)N(C)OC)cc2)c2ccccc12 [CBK047985]
The viability at 28.5 h, 10 µM of the first is higher: 101% for the first, 96.2% for the second.

First: O=C(NCCCn1ccnc1)c1cccs1 [CBK261740]
Second: CN(C)CC(O)c1cc2n(n1)CCCN(CC(=O)NCc1cccs1)C2 (centres unmarked) [CBK306738]
The viability at 28.5 h, 10 µM of the first is lower: 90.2% for the first, 91.6% for the second.

First: O=C(Cc1c[nH]c2ccccc12)N1CCC2(CCCN(Cc3c(F)cccc3F)C2)C1 (centres unmarked) [CBK132031]
Second: O=C(c1cc(F)c(F)cc1F)N1CCC2(CCN(CCN3CCOCC3)C2)C1 (centres unmarked) [CBK132145C]
The viability at 28.5 h, 10 µM of the first is higher: 115% for the first, 102% for the second.

Compared with Cc1c(C(=O)N2CCC(c3cc4ncccc4[nH]3)CC2)cnn1C [CBK283384], Cc1c(C(=O)N(C)C2CCNCC2)nnn1-c1ccc2ncccc2c1 [CBK306500C] is lower in viability at 28.5 h, 10 µM: 88.1% for the first, 84.8% for the second.

Going from CN1CCC(N(C)C(=O)NCC2COc3ccccc3O2)C1 (centres unmarked) [CBK155994] to c1ccc2c(c1)OCC(c1nn3cnnc3s1)O2 (centres unmarked) [CBK269277], the viability at 28.5 h, 10 µM rises from 100% to 111%.

First: COc1ccc(/C=C(\C#N)c2nc3ccccc3n2Cc2c(C)ccc3ccccc23)cc1 [CBK262960]
Second: Cc1cc(NC(=O)Cc2ccccc2)nc2c1c(=O)oc1ccccc12 [CBK291127]
The viability at 28.5 h, 10 µM of the first is higher: 119% for the first, 102% for the second.

First: O=C(NC1CC1)c1nn(-c2ncccn2)c2ccccc12 [CBK048508]
Second: O=C(O)C1CCCN(C(=O)NCCOc2ccccc2)C1 (centres unmarked) [CBK161366]
The viability at 28.5 h, 10 µM of the first is lower: 88% for the first, 115% for the second.

Going from CCOc1ccc(CNc2ccc(C3c4ccsc4CCN3C(C)=O)cc2)cc1 (centres unmarked) [CBK286451] to O=C(Nc1ccc(N2CCN(Cc3ccccc3)CC2)cc1)c1nc[nH]n1 [CBK266960], the viability at 28.5 h, 10 µM rises from 96.3% to 105%.

Compared with COc1cc(/C=N/Nc2nnn[nH]2)cc2c1OCO2 [CBK262253], Cc1cc(C)c2nc(-n3cncn3)c(C)cc2c1 [CBK025958] is lower in viability at 28.5 h, 10 µM: 100% for the first, 88.9% for the second.

Going from O=C(C1CC1)N1C[C@@H](c2ccsc2)[C@@H]2CN(C3CCCC3)CC[C@@H]21 [CBK283382] to Cc1ccc2[nH]c(SCC(=O)NC3CCCC3)nc2c1 [CBK057983], the viability at 28.5 h, 10 µM falls from 107% to 90%.

First: Cc1ccc2[nH]c3c(c2c1)CCCC3NCC(O)Cc1ccccc1 (centres unmarked) [CBK263154]
Second: CCN(Cc1ccccc1)C(=O)NCCc1c[nH]c2ccc(OC)cc12 [CBK155226]
The viability at 28.5 h, 10 µM of the first is higher: 87.2% for the first, 87% for the second.

Going from CCCC1SCC(=O)N1c1nncs1 (centres unmarked) [CBK023497] to Cc1nc(CNCc2c(C)nn(C)c2N2CCOCC2)cs1 [CBK305753], the viability at 28.5 h, 10 µM falls from 95.4% to 83.7%.

First: CC(=O)Nc1ccc(NC(=O)CN(C2CCCCC2)S(C)(=O)=O)cc1 [CBK266755]
Second: CCNC(=O)C1(NC(=O)Cc2cn3cccc(C)c3n2)CCCCC1 [CBK304933]
The viability at 28.5 h, 10 µM of the first is lower: 93.3% for the first, 106% for the second.

Going from NC(=O)c1sc2cc(C(F)(F)F)cnc2c1-c1cccs1 [CBK089891] to Cc1nnc(Sc2ncccc2C(F)(F)F)s1 [CBK115211], the viability at 28.5 h, 10 µM falls from 88.2% to 87.7%.

Going from CN1CCN(Cc2nc3c(c(=O)n(C)c(=O)n3C)n2CCc2ccccc2)CC1 [CBK269507] to Cc1cc(C)n(C2CCN(Cc3cn(C)c4cc(F)ccc34)CC2)n1 [CBK281806], the viability at 28.5 h, 10 µM rises from 96.2% to 112%.

Compared with O=S1(=O)N=C(Nc2ccc(S(=O)(=O)N3CCOCC3)cc2)c2ccccc21 [CBK269116], c1nc(Nc2ccc3[nH]ccc3c2)cc(-c2ccc(N3CCOCC3)cc2)n1 [CBK090851] is higher in viability at 28.5 h, 10 µM: 91% for the first, 91.1% for the second.

Compared with Nc1nc(Cc2ccc(F)cc2)no1 [CBK028717], N[C@@H]1CCCN(Cc2ccncc2)[C@H]1c1ccccc1F [CBK283459] is lower in viability at 28.5 h, 10 µM: 110% for the first, 88.4% for the second.

Going from O=C(Nc1cc(Oc2cccnc2)cc([N+](=O)[O-])c1)c1cc2nc(-c3ccccc3)cc(-c3ccccc3)n2n1 [CBK262554] to COc1cccc(NC(=O)N2CCN3C(=O)[C@H](Cc4ccc(O)cc4)NC(=O)[C@@H]3C2)c1 [CBK289618], the viability at 28.5 h, 10 µM rises from 87.3% to 99%.

Compared with COCCNC(=O)c1sc2ncn(CC(=O)Nc3ccccc3OC)c(=O)c2c1C [CBK071846], COC(=O)c1cc(C#N)c(=O)n(CC(O)COCc2ccco2)c1 (centres unmarked) [CBK305718] is higher in viability at 28.5 h, 10 µM: 88.7% for the first, 94.7% for the second.

Going from CC1(C)OC2C(C(=O)O)OC(n3cnc4c(N)ncnc43)C2O1 (centres unmarked) [CBK262912] to CC(C)(C)OC(=O)NC(C)(C)C(=O)N1CC(C(=O)O)C(c2cc3ccccc3o2)C1 (centres unmarked) [CBK003236], the viability at 28.5 h, 10 µM falls from 96.2% to 88%.

Going from O=C(CN1CCN(c2nc3cc(Cl)ccc3s2)CC1)c1ccc2c(c1)OCCCO2 [CBK074737] to CCS(=O)(=O)N1CC2C3c4ccccc4C(c4ccccc43)C2C1 (centres unmarked) [CBK282328], the viability at 28.5 h, 10 µM rises from 96.6% to 98.5%.

same assay, conditions: human, hela cells, % viability, bulk resorufin, single well

First: CCOC(=O)C1(c2ccccc2)CCN(C(=O)C2COc3ccccc3O2)CC1 (centres unmarked) [CBK132178]
Second: N#CC1(c2ccccc2)CCN(C(=O)c2ccc([N+](=O)[O-])o2)CC1 [CBK091389]
The viability at 28.5 h, 10 µM of the first is lower: 93.3% for the first, 95.7% for the second.

COc1ccc(CC(=O)Nc2cccc(-c3ccc4c(c3)COC3(CCNCC3)O4)c2)cc1F [CBK115913] gave a viability at 28.5 h, 10 µM of 86.5%.
